Source: a melting point compilation (Tetko et al.)

| melting point [°C] | Structure (SMILES) |
| --- | --- |
| 62 | CC(=O)Oc1ccc(O)cc1 |
| 103 | COc1cccc(F)c1C#N |
| 220 to 221 | O=S(=O)(O)CC(O)CNC(CO)(CO)CO (stereo not drawn) |
| 82 to 86 | Cn1c(=O)oc2ccccc21 |
| 60 | O=C1c2ccccc2C(=O)N1CCCCCBr |
| 79 | COc1ccc(C(=O)c2ccc(OC)c(OC)c2)cc1 |
| 92 to 94 | CN(C(=S)Cl)c1ccc(F)cc1 |
| 261 to 263 | O=C(O)c1cncc(-c2ccco2)c1 |
| 219 | CCOC(=O)C(C#N)=NNc1ccc(C(=O)O)cc1 |
| 76 to 78 | Cc1nc(-c2ccccc2)sc1S(=O)(=O)Cl |
| 48 | CCCCCCCOC(=O)c1ccc(O)cc1 |
| 63 to 64 | CC(C)Cc1ccc(C(=O)C(C)Br)cc1 (stereo not drawn) |
| 140 | O=C(O)CCCCCC1NC(=O)CS1 (stereo not drawn) |
| 104 to 106 | Cc1ccccc1CCC(=O)O |
| 233 to 235 | O=C1c2ccccc2C(=O)N1O |
| 107 to 108 | CC(=O)CCc1oc2c(Br)cc(Br)cc2c1-c1ccc(C)o1 |
| 157 | CC(=O)CCc1cc2c(cc1N=Nc1ccccc1C(=O)O)CCC(C)N2 (stereo not drawn) |
| 315 | Cc1ccc(NC(=O)C=Cc2ccc(C=CC(=O)Nc3ccc(C)cc3)cc2)cc1 |
| 91 to 92 | NC(=NO)c1cc(F)c(F)cc1F |
| 157 | [O-][P+](c1ccccc1)(c1ccccc1)C1C2=C(CCCC2)OC2=C1CCCC2 |
| 165 to 168 | N#CSc1ccc(N)c(C(=O)O)c1 |
| 176 | Cc1cc(N)ccc1O |
| 33 to 36 | CNc1ccc(OC)cc1 |
| 11 | ClC(C(Cl)(Cl)Cl)C(Cl)(Cl)Cl |
| 45 to 46 | O=Cc1ccccc1N1CCOCC1 |

| melting point [°C] | Structure (SMILES) |
| --- | --- |
| -7.5 | CCCCCCCC(C)=O |
| 9 | NCCCCCN |
| 56 | O=S(=O)(Cl)c1cc(Cl)c(Cl)s1 |
| 247 | O=C1OC(c2ccccc2)=N/C1=C\c1cccc(/C=C2\N=C(c3ccccc3)OC2=O)c1 |
| 127 | NCC(O)C(O)C(O)C(O)CO (stereo not drawn) |
| 95 to 97 | OCC(F)(F)C(F)(F)C(F)(F)C(F)(F)C(F)(F)C(F)(F)C(F)(F)C(F)(F)C(F)(F)C(F)F |
| 152 to 155 | Cc1nc([N+](=O)[O-])c(Br)n1CCC#N |
| 86 | NS(=O)(=O)c1ccc(CCCCCO)cc1 |
| 81 | Nc1ccc(-n2cccc2)cc1 |
| 244 to 247 | Cn1c(-c2ccc(Cl)cc2)cnc1S |
| 62 | N#Cc1ccc(N)c(C(F)(F)F)c1 |
| -1 | CCOC(=O)CCCOc1ccc(Cl)cc1C |
| 142 to 144 | O=C(O)c1sccc1C1OCCO1 |
| 129 to 205 | CCCOC(=O)c1ccc(OC(=O)c2ccc(C(=O)Oc3ccc(C(=O)OCCC)cc3)cc2)cc1 |
| 227 to 228 | CC(C)(C)c1cc(C(=S)Nc2ccccc2)cc(C(C)(C)C)c1O |
| -3 | CC(=O)c1ccc(C)c(C)c1 |
| 108 to 110 | O=C(Nc1ccccn1)C(C(F)(F)F)C(F)(F)F |
| 57 to 59 | CCCCCCCCCCCCC#CC#CCO |
| -38.5 | CCCCCCCCOC(C)=O |
| 83 to 87 | CCc1ncc[nH]1 |
| 99 | COc1cc(F)c(C=O)cc1OC |
| 24 | CC(=N[Si](C)(C)C)O[Si](C)(C)C |
| 187 | Nc1ccc(S(=O)(=O)Nc2ccc(Cl)nn2)cc1 |
| 257 to 259 | c1ccc(Nc2nc3ccccc3[nH]2)nc1 |

| Structure (SMILES) | melting point [°C] |
| --- | --- |
| CN1CCC(N(Cc2cccs2)c2ccccc2)CC1 | 95 |
| CCC(C)(C#N)N=NC(C)(C#N)CC (stereo not drawn) | 50 |
| O=C(Cc1ccccc1)OCc1ccccc1[N+](=O)[O-] | 54 |
| O=C(NC(=O)c1ccccc1Cl)Nc1ccc(OC(F)(F)F)cc1 | 195 |
